The source of these data is patent US20220073536A1 (Rigel Pharmaceuticals, Inc., priority 2003, published 2022).

In the assay the test system is cultured human mast cells (CHMC). In words: CHMC low cell density IgE activation: tryptase assay. It counts as cell-based. Particulars: IgE activation. The method, then:
Inhibition of degranulation was measured at both low and high cell density by quantifying the release of the granule specific factors tryptase, histamine and hexosaminidase. Inhibition of release and/or synthesis of lipid mediators was assessed by measuring the release of leukotriene LTC4 and inhibition of release and/or synthesis of cytokines was monitored by quantifying TNF-α, IL-6 and IL-13. Tryptase and hexosaminidase were quantified using fluorogenic substrates as described in their respective examples. […] The protocols of the various assays are provided below.
Pellet CHMC cells (980 rpm, 10 min) and resuspend in pre-warmed MT. Add 65 ul of cells to each 96-well plate. Depending on the degranulation activity for each particular CHMC donor, load 1000-1500 cells/well. Mix four times followed by a 1 hr incubation at 37° C. […] Stimulate cells by adding 25 ul of 6× anti-IgE solution to the appropriate plates. Add 25 ul MT to un-stimulated control wells. Mix twice following addition of the anti-IgE. Incubate at 37° C. for 30 minutes. […] Spin plates at 1000 rpm for 10 min to pellet cells. Transfer 25 ul of supernatant to a 96-well black bottom plate and add 100 ul of freshly diluted tryptase substrate solution to each well. Incubate plates at room temperature for 30 min.

[1] abbreviates: low cell density CHMC, tryptase, 3 pt, read-out: LD Tryptase, CHMC, IgE, 3 pt.
Setting [2] is: low cell density CHMC, tryptase, 8 pt, read-out: LD Tryptase, CHMC, IgE, 8 pt.
Where [3] appears, read: Homo sapiens, Mast cell, low cell density CHMC, tryptase release, 8 pt, read-out: LD Tryptase, CHMC, IgE, 8 pt.
Where [4] appears, read: low cell density CHMC, tryptase release, 8 pt, read-out: LD Tryptase, CHMC, IgE, 8 pt.
[5] abbreviates: Homo sapiens, Mast cell, low cell density CHMC, tryptase release, 3 pt, read-out: LD Tryptase, CHMC, IgE, 3 pt.
[6] abbreviates: low cell density CHMC, tryptase release, 3 pt, read-out: LD Tryptase, CHMC, IgE, 3 pt.

Read-outs that look alike come from different tables or passages of the source. Bounds are passed on as bounds.

On to “5-Fluoro-N2,N4-bis (4-[N-[methoxycarbonylmethylene]aminocarbonyl]phenyl)-2,4-pyrimidinediamine [Compound 1332]”, for which the IC50 was under 10 µM under setting [1] and under 10 µM under setting [2].
On to “5-Fluoro-N2- (3-hydroxyphenyl)-N4- (4-[N-[methoxycarbonylmethylene]aminocarbonyl]phenyl)-2,4-pyrimidinediamine [Compound 1328]”, for which the IC50 under setting [2] was under 10 µM.
Consider “5-Fluoro-N2-[2- (N-methylamino)carbonylindol-7-yl]-N4-[3,4-(tetrafluoroethylenedioxy)phenyl]-2,4-pyrimidinediamine [Compound 365]”, for which the IC50 under setting [1] is under 10 µM.
For `CC1Sc2ccc(Nc3nc(Nc4cccc(O)c4)ncc3F)cc2NC1=O` (racemic) [Compound 282], under setting [3], the IC50 was under 10 µM.
In the case of `CC1C(=O)Nc2cc(Nc3nc(Nc4cccc(O)c4)ncc3F)ccc2S1(=O)=O` (racemic) [Compound 284, racemic-5-Fluoro-N2-[3-hydoxyphenyl]-N4-(2-methyl-1,1,3-trioxo-2H,4H-benzo[1,4]thiazin-6-yl)-2,4-pyrimidinediamine], under setting [4], the IC50 is under 10 µM.
On the same count and under the same terms, next, `CNC(=O)COc1cccc(Nc2ncc(F)c(Nc3ccc4c(c3)NC(=O)C(C)S4(=O)=O)n2)c1` (racemic) [Compound 285, racemic-5-Fluoro-N2-[3-(N-methylamino)carbonylmethyleneoxyphenyl]-N4-(2-methyl-1,1,3-trioxo-2H,4H-benzo[1,4]thiazin-6-yl)-2,4-pyrimidinediamine]: under 10 µM.
Take `COc1ccc(Nc2ncc(F)c(Nc3ccc4c(c3)NC(=O)C(C)S4(=O)=O)n2)cc1Cl` (racemic) [Compound 286]: the IC50 under setting [3] was under 10 µM.
In the case of `COc1ccc(Nc2ncc(F)c(Nc3ccc4c(c3)NC(=O)C(C)S4(=O)=O)n2)cc1F` (racemic) [Compound 296], the IC50 by setting is: under setting [5], under 10 µM; under setting [3], under 10 µM.
On to `COc1ccc(Nc2ncc(F)c(Nc3ccc4c(c3)NC(=O)C(C)S4)n2)cc1F` (racemic) [Compound 298], for which the IC50 runs as follows: under setting [5], under 10 µM; under setting [3], under 10 µM.
`CC1Sc2ccc(Nc3nc(Cl)ncc3F)cc2NC1=O` (racemic) [Compound 314, racemic-N2-Chloro-5-fluoro-N4-(2-methyl-3-oxo-2H,4H-benzo[1,4]thiazin-6-yl)-4-pyrimidineamine]: the IC50 under setting [6] was under 10 µM.
Same read-out and setting: the value for `CC1C(=O)Nc2cc(Nc3nc(Cl)ncc3F)ccc2S1(=O)=O` (racemic) [Compound 317, racemic-N2-Chloro-5-fluoro-N4-(2-methyl-1,1,3-trioxo-2H,4H-benzo[1,4]thiazin-6-yl)-4-pyrimidineamine] was over 10 µM.
`CC1C(=O)Nc2cc(-c3nc(Nc4ccc5oncc5c4)nc(N)c3F)ccc2S1(=O)=O` (racemic) [Compound 929]: the IC50 (Homo sapiens, Mast cell, low cell density, 3 pt, read-out: LD Tryptase, CHMC, IgE, 3 pt) is under 10 µM.
In the case of `CC1Sc2ccc(Nc3nc(Nc4ccc5oncc5c4)ncc3F)cc2NC1=O` (racemic) [Compound 931], the IC50 (Homo sapiens, Mast cell, low cell density, 8 pt, read-out: LD Tryptase, CHMC, IgE, 8 pt) is under 10 µM.
Take `NC1CCOc2ccc(Nc3nc(Nc4ccc(-c5cnco5)cc4)ncc3F)cc21` (racemic) [Compound 1293, (R,S)-N4-[4-Amino-3,4-dihydro-2H-1-benzopyran-6-yl]-5-fluoro-N2-[4-(oxazol-5-yl)phenyl]-2,4-pyrimidinediamine]: the IC50 under setting [2] was under 10 µM.
Turning to `N[C@@H]1CCOc2ccc(Nc3nc(Nc4ccc(-c5ncco5)cc4)ncc3F)cc21` (racemic) [Compound 1294, (R,S)-N4-[4-Amino-3,4-dihydro-2H-1-benzopyran-6-yl]-5-fluoro-N2-[4-(oxazol-2-yl)phenyl]-2,4-pyrimidinediamine], the IC50 under setting [2] is under 10 µM.
As to `C[C@@H]1Oc2ccc(Nc3nc(Nc4ccc5cn[nH]c5c4)ncc3F)cc2NC1=O` [Compound 200], the IC50 under setting [3] was under 10 µM.
The same measure, in the same setting: the value for `C[C@@H]1Oc2ccc(Nc3nc(Nc4ccc5cnn(C)c5c4)ncc3F)cc2NC1=O` [Compound 201] was under 10 µM; that for `Cc1cc(C)cc(Nc2ncc(F)c(Nc3ccc4c(c3)NC(=O)[C@H](C)O4)n2)c1` [Compound 202, (S)-N2-(3,5-Dimethylphenyl)-5-fluoro-N4-(2-methyl-3-oxo-2H,4H-benz[1,4]oxazin-6-yl)-2,4-pyrimidinediamine] was under 10 µM.
Turning to `COc1cc(Nc2ncc(F)c(Nc3ccc4c(c3)NC(C)(C)CO4)n2)cc(OC)c1` [Compound 203, N4-(3,4-Dihydro-3,3-dimethyl-2H,4H-benz[1,4]oxazin-6-yl)-N2-(3,5-dimethoxyphenyl)-5-fluoro-2,4-pyrimidinediamine], under setting [3], the IC50 is under 10 µM.
Still for that read-out and setting: next, `Cc1cc(C)cc(Nc2ncc(F)c(Nc3ccc4c(c3)NC(=O)[C@@H](C)O4)n2)c1` [Compound 204, (R)-N2-(3,5-Dimethylphenyl)-5-fluoro-N4-(2-methyl-3-oxo-2H,4H-benz[1,4]oxazin-6-yl)-2,4-pyrimidinediamine]: under 10 µM.
Regarding `C[C@H]1Oc2ccc(Nc3nc(Nc4cc5c6c(c4)c(CCO)cn6CCO5)ncc3F)cc2NC1=O` [Compound 205, (R)-5-Fluoro-N2-[6-(2-hydroxyethyl)-2,3-dihydropyrrolo[1,2,3-d,e]benzoxazin-8-yl]-N4-(2-methyl-3-oxo-2H,4H-benz[1,4]oxazin-6-yl)-2,4-pyrimidinediamine], the IC50 under setting [4] was under 10 µM.
The same measure, in the same setting: next, `CC1(C)COc2ccc(Nc3nc(Nc4cc5c6c(c4)c(CCO)cn6CCO5)ncc3F)cc2N1` [Compound 206, N4-(3,4-Dihydro-3,3-dimethyl-2H,4H-benz[1,4]oxazin-6-yl)-5-fluoro-N2-[6-(2-hydroxyethyl)-2,3-dihydropyrrolo[1,2,3-d,e]benzoxazin-8-yl]-2,4-pyrimidinediamine]: under 10 µM.
As to `COc1ccc(Nc2ncc(F)c(Nc3ccc4c(c3)NC(=O)[C@@H](C)O4)n2)cc1Cl` [Compound 207], under setting [3], the IC50 was under 10 µM.
The same measure, in the same setting: the value for `C[C@H]1Oc2ccc(Nc3nc(Nc4ccc5cnn(C)c5c4)ncc3F)cc2NC1=O` [Compound 210] was under 10 µM.
In the case of `COc1ccc(Nc2ncc(F)c(Nc3ccc4c(c3)NC(=O)[C@@H](C)O4)n2)cc1Cl` [Compound 211], the IC50 under setting [5] is under 10 µM.
Take `COc1cc(C)c(Nc2ncc(F)c(Nc3ccc4c(c3)NC(=O)[C@@H](C)O4)n2)cc1Cl` [Compound 213]: the IC50 runs as follows: under setting [5], under 10 µM; under setting [3], under 10 µM.
For the molecule `COc1cc(Nc2ncc(F)c(Nc3ccc4c(c3)NC(=O)C(C)S4(=O)=O)n2)cc(OC)c1` (centres unmarked) [Compound 263, N2-(3,5-Dimethoxyphenyl)-N4-(dioxide-2-methyl-1,1,3-trioxo-4H-benzo[1,4]thiazin-6-yl)-5-fluoro-2,4-pyrimidinediamine], the IC50 is, setting by setting: under setting [5], under 10 µM; under setting [3], under 10 µM.
For `Cc1cc(C)cc(Nc2ncc(F)c(Nc3ccc4c(c3)NC(=O)C(C)S4(=O)=O)n2)c1` (centres unmarked) [Compound 264], the IC50 runs as follows: under setting [5], under 10 µM; under setting [3], under 10 µM.
Regarding `CC1C(=O)Nc2cc(Nc3nc(Nc4ccc5cn[nH]c5c4)ncc3F)ccc2S1(=O)=O` (centres unmarked) [Compound 265], the IC50 reads like this: under setting [5], under 10 µM; under setting [3], under 10 µM.
On to `COc1cc(Nc2ncc(F)c(Nc3ccc4c(c3)NC(=O)C(C)S4(=O)=O)n2)cc(OC)c1OC` (centres unmarked) [Compound 266], for which the IC50 under setting [5] was under 10 µM and the IC50 under setting [3] is under 10 µM.
With `COc1cc(Nc2ncc(F)c(Nc3ccc4c(c3)NC(=O)C(C)(C)S4(=O)=O)n2)cc(OC)c1` [Compound 267], the IC50 under setting [3] is under 10 µM.
Still for that read-out and setting: next, `Cc1cc(C)cc(Nc2ncc(F)c(Nc3ccc4c(c3)NC(=O)C(C)(C)S4(=O)=O)n2)c1` [Compound 268]: under 10 µM; `COc1cc(Nc2ncc(F)c(Nc3ccc4c(c3)NC(=O)C(C)(C)S4(=O)=O)n2)cc(OC)c1OC` [Compound 269]: under 10 µM; `COc1cc(Nc2ncc(F)c(Nc3ccc4c(c3)NC(=O)C(C)S4)n2)cc(OC)c1` (centres unmarked) [Compound 270]: under 10 µM.
Still for that read-out and setting: next, `Cc1cc(C)cc(Nc2ncc(F)c(Nc3ccc4c(c3)NC(=O)C(C)S4)n2)c1` (centres unmarked) [Compound 271]: under 10 µM; `COc1cc(Nc2ncc(F)c(Nc3ccc4c(c3)NC(=O)C(C)S4)n2)cc(OC)c1OC` (centres unmarked) [Compound 272]: under 10 µM.
On the same count and under the same terms, the value for `CC1(C)C(=O)Nc2cc(Nc3nc(Nc4ccc5cn[nH]c5c4)ncc3F)ccc2S1(=O)=O` [Compound 273] was under 10 µM; that for `CC1(C)C(=O)Nc2cc(Nc3nc(Nc4ccc5[nH]ncc5c4)ncc3F)ccc2S1(=O)=O` [Compound 274] was under 10 µM.
Regarding `CNC(=O)COc1cccc(Nc2ncc(F)c(Nc3ccc4c(c3)NC(=O)C(C)(C)S4(=O)=O)n2)c1` [Compound 275, N4-(2,2-Dimethyl-1,1,3-trioxo-4H-benzo[1,4]thiazin-6-yl)-5-fluoro-N2-[3-(N-methylamino)carbonylmethyleneoxyphenyl]-2,4-pyrimidinediamine], the IC50 under setting [4] was under 10 µM.
